Article PMC3830479 (Journal of Experimental Botany, 2013)

How the values were obtained:
OsG6PDH2 [1] = molecular target: T1, OsG6PDH2 (Oryza sativa, UniProt Q7X7I6); assay: inhibition of G6PDH activity; format: biochemical; settings: feedback (product) inhibition
T1 construct: gene Os04g0485300; coding region in pET32 (N-terminal fusion, His-tag), E. coli SoluBL21, HisTrap purified
T1 sequence (Q7X7I6 1-505): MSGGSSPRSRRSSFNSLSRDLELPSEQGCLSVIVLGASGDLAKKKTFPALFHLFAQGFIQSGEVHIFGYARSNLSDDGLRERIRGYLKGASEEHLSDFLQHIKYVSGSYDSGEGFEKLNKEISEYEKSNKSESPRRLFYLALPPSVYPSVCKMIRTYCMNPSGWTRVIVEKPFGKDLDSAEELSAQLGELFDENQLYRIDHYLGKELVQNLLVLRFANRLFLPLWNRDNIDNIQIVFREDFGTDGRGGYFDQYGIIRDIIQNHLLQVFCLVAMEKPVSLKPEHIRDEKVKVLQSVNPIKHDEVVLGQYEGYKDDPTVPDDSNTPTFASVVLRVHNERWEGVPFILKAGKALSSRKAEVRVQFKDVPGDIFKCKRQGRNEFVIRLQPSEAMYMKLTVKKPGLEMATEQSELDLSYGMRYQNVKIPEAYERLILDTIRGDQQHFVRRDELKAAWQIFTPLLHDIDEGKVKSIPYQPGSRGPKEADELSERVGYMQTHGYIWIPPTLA

OsG6PDH1 [2] = molecular target: T2, OsG6PDH1 (Oryza sativa, UniProt Q0DZS9); assay: inhibition of G6PDH activity; format: biochemical; settings: feedback (product) inhibition
T2 construct: gene Os02g0600400; coding region in pET32 (N-terminal fusion, His-tag), E. coli SoluBL21, HisTrap purified
T2 sequence (Q0DZS9 1-517): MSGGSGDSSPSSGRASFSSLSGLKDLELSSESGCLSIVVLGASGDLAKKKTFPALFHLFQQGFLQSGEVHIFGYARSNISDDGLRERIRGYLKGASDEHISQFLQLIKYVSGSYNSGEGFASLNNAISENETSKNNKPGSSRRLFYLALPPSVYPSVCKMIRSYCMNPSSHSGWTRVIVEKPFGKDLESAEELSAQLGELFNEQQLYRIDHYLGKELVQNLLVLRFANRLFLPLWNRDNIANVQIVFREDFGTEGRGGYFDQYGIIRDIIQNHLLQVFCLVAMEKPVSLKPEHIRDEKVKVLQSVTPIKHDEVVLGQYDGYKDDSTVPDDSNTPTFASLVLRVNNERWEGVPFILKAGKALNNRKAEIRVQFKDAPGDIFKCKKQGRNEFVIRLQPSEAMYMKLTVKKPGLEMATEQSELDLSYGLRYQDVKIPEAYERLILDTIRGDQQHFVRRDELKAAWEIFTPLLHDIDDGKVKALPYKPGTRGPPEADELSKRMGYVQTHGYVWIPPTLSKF

OsG6PDH2 [3] = molecular target: T1, OsG6PDH2; parameters: Recombinant G6PDH spectrophotometric assay at 340 nm with G6P, NADP+ reduction, 25 °C, pH 7.6; settings: feedback inhibition, G6P/NADP+ assay; inhibitor; read-out: Ki NADPH
Description: (§1) The activity of recombinant rice G6PDHs was measured spectrophotometrically (340nm) at 25 °C by detecting NADP reduction via G6PDH reaction, which is coupled with G6P production, as described by [Wakao and Benning (2005)]. Reaction mixtures with 0.01–10mM G6P contained 0.2M TRIS (pH 7.6), NADP^+ (0.01–10mM), and MgCl2 (5mM). DTT (10mM) was incubated with the reaction mixture for 1h to test its activity. The DNA fragment containing the coding region of OsHXK5, OsHXK6, AlsK, OsG6PDH1, or OsG6PDH2 was subcloned in-frame into the pET32 vector (Novagen), and overexpressed in E. coli SoluBL21 (Genlantis, San Diego, CA, USA) according to the manufacturer’s instructions. The recombinant proteins were purified using a HisTrap HP column (GE Healthcare, Wauwatosa, WI, USA) as per the manufacturer’s instructions and dialysed against 0.2M TRIS-HCl buffer (pH 7.6) containing MgCl2 (5mM). Recombinant proteins of OsG6PDH1 and OsG6PDH2 had enzymatic activity with G6P and NADP^+, and OsG6PDH1 had higher activity based on k cat/K m values (Table 2). […] Neither enzyme used A6P as a substrate (Supplementary Table S3).

OsG6PDH1 [4] = molecular target: T2, OsG6PDH1; parameters: Recombinant G6PDH spectrophotometric assay at 340 nm with G6P, NADP+ reduction, 25 °C, pH 7.6; settings: feedback inhibition, G6P/NADP+ assay; inhibitor; read-out: Ki NADPH
Description: as §1

Ki (OsG6PDH2 [3]): 30 µM
Ki (OsG6PDH1 [4]): 41.5 µM
Compound: NC(=O)C1=CN([C@@H]2O[C@H](COP(=O)(O)OP(=O)(O)OC[C@H]3O[C@@H](n4cnc5c(N)ncnc54)[C@H](OP(=O)(O)O)[C@@H]3O)[C@@H](O)[C@H]2O)C=CC1 [NADPH]
inhibition of G6PDH activity (OsG6PDH2 [1]): OsG6PDH1 and OsG6PDH2 suffered tight feedback inhibition by NADPH
inhibition of G6PDH activity (OsG6PDH1 [2]): OsG6PDH1 and OsG6PDH2 suffered tight feedback inhibition by NADPH
